Drawing on US20250034153A1, “TRIAZOLOPYRIMIDINES AS A2A / A2B INHIBITORS” (Incyte Corporation, priority 2019, published 2025), this text covers Ki and EC50 for four compounds.

One assay concerns the target Adenosine A2A (Homo sapiens (Human), UniProt P29274). Briefly: A2A Tag-lite HTRF assay (Example C). The settings on record: Tag-lite Adenosine A2A labeled cells, Red antagonist fluorescent ligand 12.5 nM, one-site competitive binding; read-out: A2A_Ki.
For assay [1], the target named is human adenosine A2B receptor (Homo sapiens (Human), UniProt P29275). Description: Adenosine A2B receptor cyclic AMP GS assay (Example B). Format: cell-based. The following applies: HEK-293 cells expressing human A2B, agonist NECA 12 nM, cAMP accumulation (FRET); read-out: A2B_cAMP_EC50. On the technique in general: cAMP levels reflect the balance of adenylyl cyclase and phosphodiesterase activity.
Sequence of human adenosine A2B receptor (P29275 whole entry): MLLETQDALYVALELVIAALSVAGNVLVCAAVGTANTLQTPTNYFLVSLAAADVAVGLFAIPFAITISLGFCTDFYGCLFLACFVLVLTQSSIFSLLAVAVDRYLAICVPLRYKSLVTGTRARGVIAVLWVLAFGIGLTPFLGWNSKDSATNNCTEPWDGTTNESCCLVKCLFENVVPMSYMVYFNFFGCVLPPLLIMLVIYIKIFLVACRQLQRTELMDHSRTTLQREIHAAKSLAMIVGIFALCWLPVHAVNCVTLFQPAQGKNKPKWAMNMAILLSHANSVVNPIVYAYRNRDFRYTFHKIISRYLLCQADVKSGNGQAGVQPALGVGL

Sequence of Adenosine A2A (P29274 whole entry): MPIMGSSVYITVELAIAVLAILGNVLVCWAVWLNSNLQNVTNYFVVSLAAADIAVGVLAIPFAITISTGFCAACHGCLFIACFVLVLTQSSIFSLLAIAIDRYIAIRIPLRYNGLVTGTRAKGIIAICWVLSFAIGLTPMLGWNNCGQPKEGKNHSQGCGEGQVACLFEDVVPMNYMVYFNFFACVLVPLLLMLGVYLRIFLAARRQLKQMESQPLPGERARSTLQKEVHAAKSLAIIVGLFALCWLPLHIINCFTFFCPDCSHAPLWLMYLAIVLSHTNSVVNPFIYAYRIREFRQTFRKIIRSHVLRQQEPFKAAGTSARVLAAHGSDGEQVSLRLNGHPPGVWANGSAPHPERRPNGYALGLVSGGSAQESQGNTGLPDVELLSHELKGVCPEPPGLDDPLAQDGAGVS

As to `Cc1cccc(CNc2nc3c(-c4ccc(=O)n(C)n4)c(-c4cccc(C#N)c4)nc(N)n3n2)n1` [Example 67, 3-(5-amino-8-(1-methyl-6-oxo-1,6-dihydropyridazin-3-yl)-2-(((6-methylpyridin-2-yl)methyl)amino)-[1,2,4]triazolo[1,5-c]pyrimidin-7-yl)benzonitrile], the Ki on Adenosine A2A is no more than 10 nM. Further, the EC50 in assay [1] was in the range of 10 to 100 nM.

With `Cc1cccc(CNc2nc3c(-c4ccncc4C)c(-c4cccc(C#N)c4)nc(N)n3n2)n1` [Example 68, 3-(5-amino-2-(((6-methylpyridin-2-yl)methyl)amino)-8-(3-methylpyridin-4-yl)-[1,2,4]triazolo[1,5-c]pyrimidin-7-yl)benzonitrile], the Ki on Adenosine A2A was no more than 10 nM. Also, the EC50 in assay [1] is no more than 10 nM.

For the compound `Cc1cc(-c2c(-c3cccc(C#N)c3)nc(N)n3nc(NCc4cccc(C)n4)nc23)cc(C)n1` [Example 69, 3-(5-amino-8-(2,6-dimethylpyridin-4-yl)-2-(((6-methylpyridin-2-yl)methyl)amino)-[1,2,4]triazolo[1,5-c]pyrimidin-7-yl)benzonitrile], the Ki at Adenosine A2A was no more than 10 nM. For the same compound, the EC50 in assay [1] was greater than 1000 nM.

For `COc1cc(-c2c(-c3cccc(C#N)c3)nc(N)n3nc(NCc4cccc(C)n4)nc23)cc(C)n1` [Example 70, 3-(5-amino-8-(2-methoxy-6-methylpyridin-4-yl)-2-(((6-methylpyridin-2-yl)methyl)amino)-[1,2,4]triazolo[1,5-c]pyrimidin-7-yl)benzonitrile], the Ki at Adenosine A2A is no more than 10 nM. Also, the EC50 in assay [1] lay within 100 to 1000 nM.
